This passage reports IC50 results from ChEMBL document CHEMBL4017441, “Mitigating the inhibition of human bile salt export pump by drugs: opportunities provided by physicochemical property modulation, in silico modeling, and structural modification” (Drug Metab Dispos, 2012).

In the experiment the target is Bile salt export pump (Homo sapiens, UniProt O95342). The format is ADME.

*1 amine or outer side, *2 acyl side, *3 side chain or, on linkers, in order; H or OH if unused. Where a SMILES comes first, the peptide text is derived from it. Bridges are numbered along the chain shown (N, C = ends). [ ]: non-standard residue; d: D form. The star is where a group is joined. ξ: configuration not given here. ΔAla(Z-3-ureido) = NC(=O)N/C=C(\N)C(=O)O; X1 = N=C1NCCC(C(N[*:1])C(=O)[*:2])N1; ξβ3hOrn = NCCCC(N)CC(=O)*; Dap = NC[CH](N)C(=O)O Bounds are passed on as bounds.

What is called IC50 is the concentration that gives 50% inhibition. In the case of `Oc1cccc2cccnc12` [OXYQUINOLINE], the IC50 was above 1000 µM.
The figure for `NS(=O)(=O)c1ccc(-c2ccc(OC[C@H](O)CCc3cccnc3)cc2)s1` is above 1000 µM; for `OCCOCCN1CCN(C(c2ccccc2)c2ccc(Cl)cc2)CC1` (stereo unspecified) [HYDROXYZINE] it is 72.9 µM.
Then `c1ccc([C@H]2CN3CCSC3=N2)cc1` [LEVAMISOLE], with above 1000 µM; and `CC(=O)CC(c1ccccc1)c1c(O)c2ccccc2oc1=O` (stereo unspecified) [WARFARIN], with 115 µM; and `COC(=O)[C@H]1[C@H]2C[C@@H]3c4[nH]c5cc(OC)ccc5c4CCN3C[C@H]2C[C@@H](OC(=O)c2cc(OC)c(OC)c(OC)c2)[C@@H]1OC` [RESERPINE], with below 10 µM.
The figure for `CC[C@H](NC(=O)c1c(O)c(-c2ccccc2)nc2ccccc12)c1ccccc1` [TALNETANT] is below 10 µM; for `Cc1cccc(C)c1N=C1NCCCS1` [XYLAZINE] it is above 1000 µM.
With `CCC[S+]([O-])CCCN(CC)CC(O)COc1ccc(C#N)cc1` (stereo unspecified) [ALMOKALANT], the IC50 turned out to be 55.7 µM.
The figure for `O=c1oc2ccccc2c(O)c1Cc1c(O)c2ccccc2oc1=O` [DICUMAROL] is 39.9 µM; for `C[C@H](CN(C(=O)c1ccc(C#N)cc1)c1ccccn1)N1CCN(c2cccc3c2OCCO3)CC1` [LECOZOTAN] it is below 10 µM; for `CCN(CC)C(C)CN1c2ccccc2Sc2ccccc21` (stereo unspecified) [ETHOPROPAZINE] it is 139 µM.
Then `CCCCCCCCCCCCCCCCCCCCCCO` [DOCOSANOL], with above 1000 µM; and `Cc1nc2c3c(ccn2c1CO)CCC(c1ccccc1)O3` (stereo unspecified), with below 10 µM; and `CN(C)CCCN1c2ccccc2Sc2ccc(Cl)cc21` [CHLORPROMAZINE], with 91 µM.
The figure for `CC(=O)[C@@]1(O)CC[C@H]2[C@@H]3C[C@H](C)C4=CC(=O)C=C[C@]4(C)[C@@]3(F)[C@@H](O)C[C@@]21C` [FLUOROMETHOLONE] is 101 µM; for `O=S(=O)(CCOCCc1ccccc1)NCCNCCc1ccc(O)c2nc(O)sc12` it is 35.7 µM; for `N[C@H](Cc1cc(I)c(Oc2cc(I)c(O)c(I)c2)c(I)c1)C(=O)O` it is below 10 µM.
`CCCc1c2nc(C(=O)O)cc(N(C)C(C)=O)c2cc2c(=O)cc(C(=O)O)oc12`: the IC50 is above 1000 µM.
Consider `CCN(CC)CCOC(=O)c1ccc(N)cc1Cl` [CHLOROPROCAINE], for which the IC50 is above 1000 µM.
The figure for `Cc1ccc(S(=O)(=O)NC(=O)NN2CCCCCC2)cc1` [TOLAZAMIDE] is 286 µM.
The figure for `Cc1onc(-c2ccccc2Cl)c1C(=O)N[C@@H]1C(=O)N2[C@@H]1SC(C)(C)[C@@H]2C(=O)O` [CLOXACILLIN] is 41.6 µM.
The figure for `CO[C@H]1/C=C/O[C@@]2(C)Oc3c(C)c(O)c4c(c3C2=O)C2=NC3(CCN(CC(C)C)CC3)NC2=C(NC(=O)/C(C)=C\C=C\[C@H](C)[C@H](O)[C@@H](C)[C@@H](O)[C@H](C)[C@H](OC(C)=O)[C@H]1C)C4=O` is below 10 µM.
As to `Cc1cc(=O)n(-c2ccccc2)n1C` [ANTIPYRINE], the concentration for half-maximal inhibition (IC50) is above 1000 µM.
With PHENYLMERCURIC ACETATE, the half-inhibitory concentration (IC50) is below 10 µM.
Then `C[C@H](CC(=O)Nc1c(Cl)ccc2nc(N3CC[C@H](N)C3)ccc12)c1ccccc1`, with below 27 µM; and `NNCCc1ccccc1` [PHENELZINE], with above 897 µM.
Then `CSCCNc1nc(SCCC(F)(F)F)nc2c1ncn2[C@@H]1O[C@H](COP(=O)(O)OP(=O)(O)C(Cl)(Cl)P(=O)(O)O)[C@@H](O)[C@H]1O` [CANGRELOR], with above 1000 µM; and `O=C(O)c1ccccc1S` [THIOSALICYLIC ACID], with above 1000 µM; and `O=C(Nc1ccc(C(=O)O)c(O)c1)c1ccccc1` [BENZOYLPAS], with above 1000 µM.
Turning to `CCOC(=O)c1ccc(N)cc1` [BENZOCAINE], the IC50 was above 1000 µM.
The figure for `Nc1cc(-c2ccncc2)c[nH]c1=O` [INAMRINONE] is 371 µM; for `CCN(CC)CCOC(=O)c1ccc(N)cc1` [PROCAINE] it is above 1000 µM; for `COc1nc(C)cnc1NS(=O)(=O)c1cccnc1-c1ccc(CC(C)C)cc1` it is 19.5 µM.
The figure for `O=c1[nH]c(=O)n([C@H]2C[C@H](O)[C@@H](CO)O2)cc1C(F)(F)F` [TRIFLURIDINE] is above 1000 µM.
Turning to `COc1cc(C(=O)N2CCOCC2)cc(OC)c1OC` [TRIMETOZINE], the half-maximal inhibitory concentration (IC50) is above 1000 µM.
For the molecule `CCN(CC)C(=S)S` [DITIOCARB], the IC50 turned out to be 69.3 µM.
The figure for `Cc1ccc(OC(C)(C)[C@H]2OC[C@@H](C/C=C\CCC(=O)O)[C@@H](c3cccnc3)O2)c([N+](=O)[O-])c1` is below 10 µM; for `C[C@H]1C[C@@](O)(c2csc(Sc3ccc4c(c3)CC(=O)N4C)c2)CCO1` it is below 10.9 µM.
The figure for `C=C[C@H]1C[N@@]2CC[C@H]1C[C@H]2[C@H](O)c1ccnc2ccc(OC)cc12` [QUININE] is 98.8 µM; for `COc1cc2nc(N3CCN(C(=O)c4ccco4)CC3)nc(N)c2cc1OC` [PRAZOSIN] it is 172 µM; for `OCCN1CCN(CCCN2c3ccccc3Sc3ccc(Cl)cc32)CC1` [PERPHENAZINE] it is 34.8 µM.
The figure for `Cc1cc(C(C)(C)C)cc(C)c1CC1=NCCN1` [XYLOMETAZOLINE] is above 796 µM; for `O=c1c2ccccc2[se]n1-c1ccccc1` [EBSELEN] it is below 10 µM; for `O=CN(O)C(CCc1cccnc1)CS(=O)(=O)N1CCN(c2ccc(Cl)cn2)CC1` (stereo unspecified) it is below 10 µM.
As to `COc1ncnc(NS(=O)(=O)c2ccc(N)cc2)c1OC` [SULFADOXINE], the IC50 was above 1000 µM.
The figure for `Cc1ccnc(NS(=O)(=O)c2ccc(N)cc2)n1` [SULFAMERAZINE] is above 1000 µM; for `CC(CCc1ccccc1)NC(C)C(O)c1ccc(O)cc1` (stereo unspecified) [NYLIDRIN] it is 280 µM; for `COC(=O)C1=CCCN(C)C1` [ARECOLINE] it is above 1000 µM.
The figure for BISMUTH SUBSALICYLATE is above 1000 µM.
The figure for `CCCC(C(=O)OCCN(CC)CC)(c1ccccc1)c1ccccc1` [PROADIFEN] is below 13.2 µM; for `COC(=O)C1=C(C#N)NC(C)=C(C(=O)OC(C)C)C1c1cccc([N+](=O)[O-])c1` (stereo unspecified) [NILVADIPINE] it is below 10 µM.
Regarding `N=C(N)c1ccc(OCCCCCOc2ccc(C(=N)N)cc2)cc1` [PENTAMIDINE], the half-maximal inhibitory concentration (IC50) was above 1000 µM.
For `COc1ccc(CN(CCN(C)C)c2ccccn2)cc1` [PYRILAMINE], the IC50 was above 1000 µM.
The figure for `NCCS` [CYSTEAMINE] is 331 µM; for `Cc1nc(Nc2ncc(C(=O)Nc3c(C)cccc3Cl)s2)cc(N2CCN(CCO)CC2)n1` [DASATINIB] it is below 10 µM; for `N=C(N)NC(=O)c1nc(Cl)c(N)nc1N` [AMILORIDE] it is above 1000 µM.
The figure for `CNC(=O)c1cc(Oc2ccc(NC(=O)Nc3ccc(Cl)c(C(F)(F)F)c3)cc2)ccn1` [SORAFENIB] is below 10 µM; for `COc1cc(Cc2cnc(N)nc2N)cc(OC)c1OC` [TRIMETHOPRIM] it is 833 µM; for `CC(=O)NC[C@H]1CN(c2ccc(N3CCOCC3)c(F)c2)C(=O)O1` [LINEZOLID] it is above 1000 µM.
Then `COc1ccc2c(c1OC)C(=O)OC2C1c2cc3c(cc2CCN1C)OCO3` (stereo unspecified), with 65.6 µM.
Turning to `C[C@]12CC[C@@H]3c4ccc(O)cc4CC[C@H]3[C@@H]1C[C@@H](O)[C@@H]2O` [ESTRIOL], the IC50 is above 1000 µM.
Then `O=c1ncn2nc(Sc3ccc(F)cc3F)ccc2c1-c1c(Cl)cccc1Cl` [NEFLAMAPIMOD], with below 10 µM; and `CN(C)CC/C=C1/c2ccccc2Sc2ccc(Cl)cc21` [CHLORPROTHIXENE], with 27.5 µM.
Then `CC(C)(CO)[C@@H](O)C(=O)NCCCO` [DEXPANTHENOL], with above 1000 µM.
The figure for `Oc1ccc(C(O)CNCCCCCCNCC(O)c2ccc(O)c(O)c2)cc1O` (stereo unspecified) [HEXOPRENALINE] is above 1000 µM; for `Nc1nc2c(c(=O)[nH]1)N(C=O)C(CNc1ccc(C(=O)N[C@@H](CCC(=O)O)C(=O)O)cc1)CN2` (stereo partly specified) [LEUCOVORIN] it is above 1000 µM; for `NCC1(CC(=O)O)CCCCC1` [GABAPENTIN] it is above 1000 µM.
Turning to `Cc1cc2c(OCC(O)CNC(C)C)cccc2[nH]1` (stereo unspecified) [MEPINDOLOL], the IC50 is 35.9 to 36 µM.
The figure for `CCc1nn(CCCN2CCN(c3cccc(Cl)c3)CC2)c(=O)n1CCOc1ccccc1` [NEFAZODONE] is below 10 µM; for `COc1cc(CNC(=O)CCCC/C=C/C(C)C)ccc1O` [CAPSAICIN] it is below 10 µM.
Then `Clc1ccc(C(c2ccccc2Cl)C(Cl)Cl)cc1` (stereo unspecified) [MITOTANE], with below 10 µM; and `CCCCOc1cc(C(=O)NCCN(CC)CC)c2ccccc2n1` [DIBUCAINE], with 41.7 µM; and `OC[C@@H](O)[C@@H](O[C@@H]1O[C@H](CO)[C@H](O)[C@H](O)[C@H]1O)[C@H](O)[C@@H](O)CO` [LACTITOL], with above 1000 µM.
Then `O=c1[nH]c2c(O)ccc(CCNCCCS(=O)(=O)CCCOCCc3ccccc3)c2s1`, with 32.4 µM; and `CCCCOC(=O)c1ccc(N)cc1` [BUTAMBEN], with 181 µM; and `N=C1NCCC(C2NC(=O)/C(=C/NC(N)=O)NC(=O)C(CNC(=O)CC(N)CCCN)NC(=O)C(CO)NC(=O)C(N)CNC2=O)N1` (stereo not drawn) (H-[Dap]S[Dap](ξβ3hOrn)[ΔAla(Z-3-ureido)][X1]; lactam 1-C; configuration not given here), with above 1000 µM.
In the case of `CN[C@]1(C)[C@H]2CC[C@H](C2)C1(C)C`, the IC50 was above 1000 µM.
Then `COc1ccc2c(C(=S)N(C)CC(=O)O)cccc2c1C(F)(F)F` [TOLRESTAT], with 185 µM.
As to `CC1=C(/C=C/C(C)=C/C=C/C(C)=C/C(=O)O)C(C)(C)CCC1` [TRETINOIN], the IC50 was below 10 µM.
With `CCOC(=O)[C@H](CCc1ccccc1)N[C@@H](C)C(=O)N1N=C(C(C)(C)C)S[C@H]1C(=O)O` [UTIBAPRIL], the IC50 was below 13.5 µM.
Then `O=NN(CCCl)C(=O)NCCCl` [CARMUSTINE], with 97.2 µM.
Then `CCCc1c2oc(C(=O)O)cc(=O)c2cc2c(=O)cc(C(=O)O)oc12` [PROBICROMIL], with above 1000 µM; and `COC(=O)[C@@H]1[C@H]2C[C@H]3c4[nH]c5ccccc5c4CCN3C[C@@H]2CC[C@@H]1O` [YOHIMBINE], with 254 µM; and `CN(C)/N=N/c1[nH]cnc1C(N)=O` [DACARBAZINE], with above 1000 µM.
Take `Cc1ccc(C(=O)c2cc(O)c(O)c([N+](=O)[O-])c2)cc1` [TOLCAPONE]: the IC50 is below 33.9 µM.
